Test results: PMC4134938 (Clinical cancer research : an official journal of the …, 2009)
Read-outs that look alike come from different tables or passages of the source.

Experiments:
[1] = system: thymidylate synthase (TS); assay: TS tumor gene expression by RT-PCR in paired biopsies; type: in vivo, human
[2] = system: thymidylate synthase (TS); assay: TS tumor expression by immunohistochemistry in paired liver metastasis biopsies; type: in vivo, human; conditions: for Change in TS staining intensity (IHC): day 4 vs pre-treatment
[3] = read-out: Cmax of vorinostat; single-agent 900 mg/m^2 i.v. over 2 hours x 3 days every 3 weeks; ref [26]; cited from earlier work
[4] = system: patients with refractory colorectal cancer; assay: Toxicity assessment per NCI CTC 3.0; type: in vivo, human
[5] = system: thymidylate synthase (TS); conditions: ref [28], [29], cited from earlier work
[6] = system: patients with refractory colorectal cancer
[7] = Vorinostat serum pharmacokinetics; type: in vivo, human; conditions: for AUC / Tmax / half-life / Cmax: human, po
[8] = system: metastatic colorectal cancer; assay: Antitumor response by CT; type: in vivo, human; conditions: 21 assessable patients, vorinostat + FOLFOX
[9] = 5-FU plasma pharmacokinetics; type: in vivo, human; conditions: for AUC / Cmax / Css: plasma 5-FU, mean ± SD
[10] = DL4 vorinostat 400 mg BID+FOLFOX, 4 patients, all cycles
[11] = all dose levels, 21 patients, vorinostat + FOLFOX
[12] = serum, 100 mg, vorinostat 100 mg PO BID, Day 1, serum, mean
[13] = serum, 200 mg, vorinostat 200 mg PO BID, Day 5 (with FOLFOX), serum, mean
[14] = serum, 300 mg, vorinostat 300 mg PO BID, Day 1, serum, mean
[15] = serum, 300 mg, vorinostat 300 mg PO BID, Day 5 (with FOLFOX), serum, mean
[16] = serum, 400 mg, vorinostat 400 mg PO BID, Day 1, serum, mean
[17] = serum, 400 mg, vorinostat 400 mg PO BID, Day 5 (with FOLFOX), serum, mean
[18] = maintenance dose 2400 mg/m^2, vorinostat 100 mg
[19] = maintenance dose 2400 mg/m^2, vorinostat 200 mg
[20] = maintenance dose 2400 mg/m^2, vorinostat 300 mg
[21] = maintenance dose 2400 mg/m^2, vorinostat 400 mg

With `O=C(CCCCCCC(=O)Nc1ccccc1)NO` [vorinostat, Suberoylanilide Hydroxamic Acid] the “Patients without any change in TS expression (RT-PCR)” value ([1]; 6 patients with paired biopsies) was “four”, the “Patients with down-regulation of TS (RT-PCR)” value ([1]; paired tumor biopsies, day 4 of vorinostat vs pre-treatment (DL1 and DL4)) was 2 of 6 and the “Decrease in TS gene expression” value ([1]; patient at DL1 (vorinostat 100 mg PO BID)) was about 50%. The “TS gene expression relative to β-actin” value ([1]; patient at DL1, before vorinostat) was 0.92, the “TS gene expression relative to β-actin” value ([1]; patient at DL1, following vorinostat treatment) was 0.45 and the “Decrease in TS gene expression” value ([1]; patient at DL4 (vorinostat 400 mg PO BID)) was “approximately 33%”. For the same compound, the “TS gene expression relative to β-actin” value ([1]; patient at DL4, before vorinostat) was 2.27, the “TS gene expression relative to β-actin” value ([1]; patient at DL4, following vorinostat treatment) was 1.58 and the “Patients with no change in TS staining pattern (IHC)” value ([2]; 6 paired samples, pre-treatment vs 4th day of vorinostat, cycle 1) was 4. For the same compound, the “Change in TS staining intensity (IHC)” value ([2]; one patient at DL1 (vorinostat 100 mg PO BID)) was “decreased intensity from strong to weak”, the “Change in TS staining intensity (IHC)” value ([2]; one patient at DL4 (vorinostat 400 mg PO BID)) was “increase in intensity from weak to strong” and the Cmax [3] was over 20000 nM. The “Neutropenia G3 (patients)” value [4, 10] was 2, the “Thrombocytopenia G4 (patients)” value [4, 10] was 2 and the “Grade 3-4 thrombocytopenia (patients)” value [4, 11] was 5. The “Grade 3-4 thrombocytopenia (share of patients)” value [4, 11] was 24%, the “Down-regulation of TS expression” value ([5]; in vitro and in vivo models, Q-PCR analysis) was at most 100 fold and the “Vorinostat concentration required for effective TS down-regulation” value ([5]; pre-clinical studies, 24 hours of vorinostat exposure) was at least 5 µM. For the same compound, the “Patients with DLT” value ([6]; DL1 vorinostat 100 mg PO BID + FOLFOX, 3 evaluable patients, cycle 1) was “None”, the “Patients with DLT” value ([6]; DL2 vorinostat 200 mg PO BID + FOLFOX, 3 patients, cycle 1) was “without any DLT” and the “Patients with DLT (fatigue, anorexia, dehydration)” value ([6]; DL3 vorinostat 300 mg PO BID + FOLFOX, evaluable patients, cycle 1) was “One of 10”. The Tolerability of dose-level ([6]; DL4 vorinostat 400 mg PO BID + FOLFOX) was “intolerable”, the “Patients with DLT (grade 3 fatigue; grade 3 diarrhea in one)” value ([6]; DL4 vorinostat 400 mg PO BID + FOLFOX, cycle 1) was 2 of 4 and the “MTD of vorinostat in combination with FOLFOX” value ([6]; x 1 week every two weeks, FOLFOX on days 4 and 5) was 300 mg PO BID. For the same compound, the AUC [7, 12] was 2.5 µM·h, the Tmax [7, 12] was 2.4 h and the half-life ([7]; serum, 100 mg, t1/2, vorinostat 100 mg PO BID, Day 1, serum, mean) was 1.5 h. It also gave an AUC ([7]; serum, 200 mg, vorinostat 200 mg PO BID, Day 1, serum, mean) of 1.9 µM·h, an AUC [7, 13] of 3.3 µM·h and a Cmax ([7]; serum, 200 mg, Cmax, vorinostat 200 mg PO BID, Day 1, serum, mean) of 816 nM. The Cmax ([7]; serum, 200 mg, Cmax, vorinostat 200 mg PO BID, Day 5 (with FOLFOX), serum, mean) was 894 nM, the Tmax [7, 13] was 2.7 h and the half-life ([7]; serum, 200 mg, t1/2, vorinostat 200 mg PO BID, Day 1, serum, mean) was 1.2 h. For the same compound, the AUC [7, 14] was 4.4 µM·h, the AUC [7, 15] was 6.8 µM·h and the Cmax ([7]; serum, 300 mg, Cmax, vorinostat 300 mg PO BID, Day 1, serum, mean) was 1460 nM. It also gave a Cmax ([7]; serum, 300 mg, Cmax, vorinostat 300 mg PO BID, Day 5 (with FOLFOX), serum, mean) of 950 nM, a Tmax [7, 14] of 1.6 h and a Tmax [7, 15] of 2.4 h. It also gave a half-life ([7]; serum, 300 mg, t1/2, vorinostat 300 mg PO BID, Day 1, serum, mean) of 2.3 h, a half-life ([7]; serum, 300 mg, t1/2, vorinostat 300 mg PO BID, Day 5 (with FOLFOX), serum, mean) of 2.3 h and an AUC [7, 16] of 4.5 µM·h. For the same compound, the AUC [7, 17] was 7.4 µM·h, the Cmax ([7]; serum, 400 mg, Cmax, vorinostat 400 mg PO BID, Day 1, serum, mean) was 1510 nM and the Cmax ([7]; serum, 400 mg, Cmax, vorinostat 400 mg PO BID, Day 5 (with FOLFOX), serum, mean) was 1480 nM. It also gave a Tmax [7, 16] of 1.9 h, a Tmax [7, 17] of 2.8 h and a half-life ([7]; serum, 400 mg, t1/2, vorinostat 400 mg PO BID, Day 1, serum, mean) of 3.7 h. For the same compound, the half-life ([7]; serum, 400 mg, t1/2, vorinostat 400 mg PO BID, Day 5 (with FOLFOX), serum, mean) was 2.2 h, the Cmax ([7]; serum, Cmax of vorinostat, at all dose levels (100-400 mg PO BID)) was under 2000 nM and the CLapp ([7]; vorinostat 100 mg PO BID, Day 1, serum, mean) was 189 L/h. The CLapp ([7]; vorinostat 100 mg PO BID, Day 5 (with FOLFOX), serum, mean) was 202 L/h, the CLapp ([7]; vorinostat 200 mg PO BID, Day 1, serum, mean) was 400 L/h and the CLapp ([7]; vorinostat 200 mg PO BID, Day 5 (with FOLFOX), serum, mean) was 231 L/h. For the same compound, the CLapp ([7]; vorinostat 300 mg PO BID, Day 1, serum, mean) was 285 L/h, the CLapp ([7]; vorinostat 300 mg PO BID, Day 5 (with FOLFOX), serum, mean) was 225 L/h and the CLapp ([7]; vorinostat 400 mg PO BID, Day 1, serum, mean) was 345 L/h. For the same compound, the CLapp ([7]; vorinostat 400 mg PO BID, Day 5 (with FOLFOX), serum, mean) was 211 L/h, the “Change in vorinostat Clapp, day 5 compared to day 1” value ([7]; within patients, 14 patients, p=0.003) was “significant decrease” and the “Change in vorinostat AUC, day 5 compared to day 1” value ([7]; within patients, 14 patients, p=0.005) was “significant increase”. For the same compound, the “Change in vorinostat Tmax, day 5 compared to day 1” value ([7]; within patients, 19 patients, p=0.02) was “statistically significant increase”, the Objective response [8] was “No patient developed an objective response” and the “Patients with confirmed stable disease” value [8] was 5. The “Patients with stable disease on 2-month staging CT scan” value [8] was “Eleven”.

For `O=c1[nH]cc(F)c(=O)[nH]1` [5-FU, 5-Fluorouracil], the AUC [9, 18] was 15.3 ± 5.7 ηg*hr/mL, the Cmax [9, 18] was 5.03 ± 4.39 ηg/mL and the Css [9, 18] was 0.287 ± 0.044 ηg/mL. For the same compound, the AUC [9, 19] was 24 ± 9.11 ηg*hr/mL, the Cmax [9, 19] was 13.1 ± 7.96 ηg/mL and the Css [9, 19] was 0.274 ± 0.045 ηg/mL. The AUC [9, 20] was 68.7 ± 88.1 ηg*hr/mL, the Cmax [9, 20] was 24.5 ± 14.5 ηg/mL and the Css [9, 20] was 0.396 ± 0.159 ηg/mL. The AUC [9, 21] was 46.7 ± 10.6 ηg*hr/mL, the Cmax [9, 21] was 26.8 ± 11.4 ηg/mL and the Css [9, 21] was 0.432 ± 0.077 ηg/mL. The “median 5-FU Css” value ([9]; vorinostat 100 mg BID dose group) was 3000 ng/mL, the “Median 5-FU AUC” value ([9]; vorinostat 100 mg dose group) was 14000 ng·h/mL and the “median 5-FU Css” value ([9]; vorinostat 200 mg BID dose group) was 16000 ng/mL. For the same compound, the “Median 5-FU AUC” value ([9]; vorinostat 200 mg dose group) was 26000 ng·h/mL, the “median 5-FU Css” value ([9]; vorinostat 300 mg BID dose group) was 20000 ng/mL and the “Median 5-FU AUC” value ([9]; vorinostat 300 mg dose group) was 35000 ng·h/mL. For the same compound, the “median 5-FU Css” value ([9]; vorinostat 400 mg BID dose group) was 23000 ng/mL and the “Median 5-FU AUC” value ([9]; vorinostat 400 mg dose group) was 44000 ng·h/mL.
